The values below come from the supplement of paper PMC11616607.

One experiment has as its system OVCAR8. The experiment is described as follows: drug sensitivity score (DSS) from 5-point dose-response viability curve (DSS (area-under-curve based score)); higher = more sensitive (stronger growth inhibition or killing); extreme values may be limits of the assay. To be noted: exposure time: 72 h; concentration range: 5 concentrations over 10,000-fold range. A digest of the protocol: (§1)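 Drug sensitivity scores were calculated in Breeze software for each cell line and drug pair; higher scores indicate more sensitivity. A score of zero indicates no response. The underlying assay used 384-well plates: drugs were placed by an Echo 550 acoustic dispenser at five concentrations spanning a 10,000-fold range, 1,500 ovarian cancer or normal ovarian cells were added per well, and cells were kept 3 days at 37°C, 5% CO2. Viability was then measured with CellTiter-Glo luminescence on a PHERAstar FS.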
As to `CN1CC[C@H](c2c(O)cc(O)c3c(=O)cc(-c4ccccc4Cl)oc23)[C@H](O)C1` [Alvocidib], the drug sensitivity score worked out at 17.8.
The compound `O=C1NC(=O)[C@@H](c2cn3c4c(cccc24)CCC3)[C@@H]1c1c[nH]c2ccccc12` [Tivantinib] yielded a drug sensitivity score of 4.1.
In the case of `C[C@@H](Nc1cc(F)cc(F)c1)c1cc(C(=O)N(C)C)cc2c(=O)cc(N3CCOCC3)oc12` [AZD-8186], the drug sensitivity score amounted to 0.6.
On the same count and under the same terms, with `O=C1Cc2cc(C(=O)NC3C[C@H]4CC[C@@H](C3)N4S(=O)(=O)CC3CCN(CCCC(F)(F)F)CC3)c(Cl)cc2N1` (some centres not stated) the figure was 0; with `C/C(=C\c1csc(C)n1)[C@@H]1C[C@@H]2O[C@]2(C)CCC[C@H](C)[C@H](O)[C@@H](C)C(=O)C(C)(C)[C@@H](O)CC(=O)N1` [Ixabepilone], 5.2; with `COc1ccc(COc2cc3oc(=O)c4cc(C(C)O)ccc4c3cc2OC)cc1` (configuration not stated) [Palomid-529], 0.
`Nc1ncn([C@@H]2O[C@H](CO)[C@@H](O)[C@H]2O)c(=O)n1` [Azacitidine]: the drug sensitivity score amounted to 3.4.
The same measure, in the same setting: with `Cc1nn(C)c(COc2ccc(N3CCN(S(=O)(=O)N(C)C)CC3)cc2)c1-c1cccc2c(CCCOc3cccc4ccccc34)c(C(=O)O)n(CCN3CCOCC3)c12` the figure was 7.4; with `C=C1C[C@@H]2[C@H](CC[C@]3(C)C(=O)CC[C@@H]23)[C@@]2(C)C=CC(=O)C=C12` [Exemestane], 0.
On the same count and under the same terms, then `C[C@@H]1C=C2C(=O)O[C@@H]3CC[C@H](C1)[C@]23O` [Galiellalactone], with 3.6; and `Cn1c(Nc2ccc(C(F)(F)F)cc2)nc2cc(Oc3ccnc(-c4ncc(C(F)(F)F)[nH]4)c3)ccc21` [NVP-RAF265], with 1.9; and `Cn1ncc(Cl)c1-c1cc(C(=O)N[C@H](CN)Cc2ccc(F)c(F)c2)oc1Cl` [Uprosertib], with 0.
`CC1=C2C[C@H]3[C@@H](CC[C@@H]4C[C@H](NS(C)(=O)=O)CC[C@@]43C)[C@@H]2CC[C@@]2(C1)O[C@@H]1C[C@H](C)CN[C@H]1[C@H]2C` [Saridegib]: the drug sensitivity score was found to be 0.4.
The same measure, in the same setting: with `COc1cc2c(Oc3ccc(NC(=O)C4(C(=O)Nc5ccc(F)cc5)CC4)cc3F)ccnc2cc1OCCCN1CCOCC1` [Foretinib] the figure was 1; with `COCCOc1cnc2ccn([C@H](C)c3nnc4c(F)cc(-c5cnn(C)c5)cn34)c(=O)c2c1` [AMG-337], 0; with `Nc1ccccc1NC(=O)c1ccc(CNC(=O)OCc2cccnc2)cc1` [Entinostat], 9.3.

The subject of another experiment is Ovsaho. The experiment is described as above. To be noted: exposure time: 72 h; concentration range: 5 concentrations over 10,000-fold range. The method, boiled down:
as §1
The compound `Cc1cnc(-c2ccccc2C(C)C)nc1NCc1ccc(-n2ccnn2)cc1` [ML323] gave a drug sensitivity score of 0.
Still for that read-out and setting: then `Cc1ccc(C(=O)Nc2cccc(C(F)(F)F)c2)cc1Nc1nc(-c2cccnc2)nc2c1cnn2C` [NVP-BHG712], with 2.9; and `COc1cc2c(cc1OCCCN1CCCC1)N=C(N)C21CCC1` [A-366], with 0.3; and `CS(=O)(=O)c1ccc(C(=O)Nc2ccc(Cl)c(-c3ccccn3)c2)c(Cl)c1` [Vismodegib], with 0.
On the same count and under the same terms, with `COc1cc2c(Oc3ccc4[nH]c(C)cc4c3F)ncnc2cc1OCCCN1CCCC1` [Cediranib] the figure was 0.7; with `CCNC(=O)c1noc(-c2cc(C(C)C)c(O)cc2O)c1-c1ccc(CN2CCOCC2)cc1` [Luminespib], 8.7.
The same measure, in the same setting: then `Cc1cnc(Nc2ccc(OCCN3CCCC3)cc2)nc1Nc1cccc(S(=O)(=O)NC(C)(C)C)c1` [Fedratinib], with 7.4; and `CNC(=O)c1ccc(C)c(-n2c(C)cc(OCc3ccc(F)cc3F)c(Br)c2=O)c1`, with 0.
Consider `Cc1nc(Nc2n[nH]c3c2CN(C(=O)N[C@H](CN(C)C)c2ccccc2)C3(C)C)c2sccc2n1`, for which the drug sensitivity score is 9.
Still for that read-out and setting: then `CCN(CC)Cc1ccc2cc(COC(=O)Nc3ccc(C(=O)NO)cc3)ccc2c1` [Givinostat], with 3.2; and `CC(C)(C)Cn1c(N)nc2ccc(-c3[nH]c(C(C)(C)C)nc3-c3ccc(F)cc3)nc21` [Ralimetinib], with 1.8; and `COc1cc2nccc(Oc3ccc(NC(=O)NC4CC4)c(Cl)c3)c2cc1C(N)=O` [Lenvatinib], with 0.1.
The same measure, in the same setting: with `S=c1[nH]cnc2nc[nH]c12` [Mercaptopurine] the figure was 5.5; with `CNc1nc(Nc2cn(C(C)(C)C#N)nc2C)ncc1C(F)(F)F` [GNE-0877], 0; with `COc1cc2nccc(Oc3ccc(NC(=O)C4(C(=O)Nc5ccc(F)cc5)CC4)cc3)c2cc1OC` [Cabozantinib], 0.
For the compound `CN1CC[C@H](c2c(O)cc(O)c3c(=O)cc(-c4ccccc4Cl)oc23)[C@H](O)C1` [Alvocidib], the drug sensitivity score came to 15.9.
The same measure, in the same setting: then `O=C1NC(=O)[C@@H](c2cn3c4c(cccc24)CCC3)[C@@H]1c1c[nH]c2ccccc12` [Tivantinib], with 4.2.
`C[C@@H](Nc1cc(F)cc(F)c1)c1cc(C(=O)N(C)C)cc2c(=O)cc(N3CCOCC3)oc12` [AZD-8186]: the drug sensitivity score amounted to 6.3.
Still for that read-out and setting: with `O=C1Cc2cc(C(=O)NC3C[C@H]4CC[C@@H](C3)N4S(=O)(=O)CC3CCN(CCCC(F)(F)F)CC3)c(Cl)cc2N1` (some centres not stated) the figure was 0; with `C/C(=C\c1csc(C)n1)[C@@H]1C[C@@H]2O[C@]2(C)CCC[C@H](C)[C@H](O)[C@@H](C)C(=O)C(C)(C)[C@@H](O)CC(=O)N1` [Ixabepilone], 2; with `COc1ccc(COc2cc3oc(=O)c4cc(C(C)O)ccc4c3cc2OC)cc1` (configuration not stated) [Palomid-529], 0.1.
Same read-out and setting: with `Nc1ncn([C@@H]2O[C@H](CO)[C@@H](O)[C@H]2O)c(=O)n1` [Azacitidine] the figure was 3.5; with `Cc1nn(C)c(COc2ccc(N3CCN(S(=O)(=O)N(C)C)CC3)cc2)c1-c1cccc2c(CCCOc3cccc4ccccc34)c(C(=O)O)n(CCN3CCOCC3)c12`, 8.6.
Still for that read-out and setting: then `C=C1C[C@@H]2[C@H](CC[C@]3(C)C(=O)CC[C@@H]23)[C@@]2(C)C=CC(=O)C=C12` [Exemestane], with 0; and `C[C@@H]1C=C2C(=O)O[C@@H]3CC[C@H](C1)[C@]23O` [Galiellalactone], with 4.6.
For the compound `Cn1c(Nc2ccc(C(F)(F)F)cc2)nc2cc(Oc3ccnc(-c4ncc(C(F)(F)F)[nH]4)c3)ccc21` [NVP-RAF265], the drug sensitivity score worked out at 1.7.
Still for that read-out and setting: then `Cn1ncc(Cl)c1-c1cc(C(=O)N[C@H](CN)Cc2ccc(F)c(F)c2)oc1Cl` [Uprosertib], with 0.6.
Same read-out and setting: with `CC1=C2C[C@H]3[C@@H](CC[C@@H]4C[C@H](NS(C)(=O)=O)CC[C@@]43C)[C@@H]2CC[C@@]2(C1)O[C@@H]1C[C@H](C)CN[C@H]1[C@H]2C` [Saridegib] the figure was 0.
For the compound `COc1cc2c(Oc3ccc(NC(=O)C4(C(=O)Nc5ccc(F)cc5)CC4)cc3F)ccnc2cc1OCCCN1CCOCC1` [Foretinib], the drug sensitivity score amounted to 1.9.
Same read-out and setting: then `COCCOc1cnc2ccn([C@H](C)c3nnc4c(F)cc(-c5cnn(C)c5)cn34)c(=O)c2c1` [AMG-337], with 0; and `Nc1ccccc1NC(=O)c1ccc(CNC(=O)OCc2cccnc2)cc1` [Entinostat], with 2.4.
